Assay results published in patent US20230272479A1, “BIOMARKER BASED PATIENT SELECTION FOR PROTEASOME INHIBITOR TREATMENT” (University of Utah Research Foundation, priority 2020, published 2023).
Residues, ends and D or L forms follow the SMILES beside them. *: point of attachment. Cbz = O=C(OCc1ccccc1)*; CH2F = FC*

How the values were obtained:
Jurkat cells = test: Viability of WT or ATAD1Δ Jurkat cells after treatment with MCL1 inhibitor; format: cell-based, human; details: ATAD1Δ vs WT Jurkat cells, 24 hr treatment
Method: FIGS. 2A-2G show genome-wide CRISPR screens identify genetic interactions with ATAD1 (A) Schematic of CRISPR screening strategy (B) Generation of clonal ATAD1 knockout in a PTEN-null genetic background of Jurkat cells and proliferation rate of ATAD1Δ and WT Jurkat cells in RPMI1640 media (C) Volcano plot of CRISPR screening results; CRISPR scores were defined as the mean Log2 fold-change of sgRNAs targeting a given gene. Differential CRISPR scores (dCS) were calculated by subtracting the WT CS from the ATAD1Δ CS. dCS combined is the sum of dCS values for each clone. P-values were calculated for each gene using Kolmogorov-Smirnov with Benjamini Hochberg correction and Fisher's Method for P value meta-analysis. Dashed lines demarcate dCS<−2 and Padj<0.05 (D) DepMap data showing correlation of MARCH5 dependency and MCL1 dependency (E) Western blot of whole cell lysates from WT or ATAD1Δ Jurkat cells showing steady-state levels of BIM, MCL1, and FIS1, a non-BCL2 family control (F) Quantification of BIMEL levels in ATAD1Δ cells; n=6 independent experiments (G) Viability of WT or ATAD1Δ Jurkat cells after 24 hr treatment with the MCL1 inhibitor, AMG176.
Thus, like MARCH5, ATAD1 modulates members the BCL2 family and affects apoptotic priming as measured by sensitivity to a BH3-mimetic. […]

H4 glioma cells = test: BH3 profiling (cytochrome C release / MOMP) in permeabilized H4 glioma cells; format: cell-based; details: compared across ATAD1 status
Method: Cells were treated with doxycycline (250 ng/mL) for 24 hr (F) Co-immunoprecipitation of ATAD1-FLAG/HA and GFP-BIMEL in cells stably expressing ATAD1-FLAG or EV and transiently transfected overnight with GFP-BIMEL in the presence of zVAD-fmk (G) RPMI7951 cells were treated with MG132 (10 μM) for 4 hr, whole-cell lysates were prepped and analyzed by Western blot. (H) Schematic of reconstituted proteoliposome extraction assay (I) Extraction assay using His-ATAD1 and 3×FLAG-BIML (lanes 1-4, 9-20) or the negative control TA protein, 3×FLAG-Fis1 (lanes 5-8); GST-tagged SGTA and calmodulin (CaM) are included as chaperones to catch extracted TA protein. “I”=Input, “FT”=flow-through, “W”=final wash, “E”=elution. Eluted fractions represent TA proteins extracted by ATAD1 and bound by GST-tagged chaperones; compare elution “E” to input “I”. † denotes P<0.0001
To gain insight into how loss of ATAD1 affects apoptotic priming, BH3 profiling was conducted (33). Here, permeabilized cells are treated with BH3 peptides derived from different pro-apoptotic BH3-only proteins, and mitochondrial outer membrane permeability (MOMP) is directly measured by detecting cytochrome C release from mitochondria (FIG. 3A). […] This priming reflects a change in how the cell regulates the endogenous BIM protein. […]

[1] = test system: Del10q23 cells (SW1088 and H4 glioma and RPMI7951 melanoma); test: Viability of Del10q23 cells treated with proteasome inhibitors (Cell Titer Glo, crystal violet); format: cell-based
Method: (§1) FIGS. 4A-4K show ATAD1 protects cells from apoptosis induced by proteasome dysfunction. (A) Viability of SW1088 cells transduced with EV or ATAD1-FLAG and treated for 24 hr with indicated drugs (B) Time-course of viability in response to bortezomib treatment in SW1088 cells (C) Western blot of RPMI7951 whole cell lysate treated with 10 nM bortezomib for 8 hr (D) Quantification of C (E) Viability of ATAD1-null vs. re-expressing RPMI7951 cells in response to 16 hr treatment with BTZ and the pan-caspase inhibitor, zVAD-FMK (20 μM) or DMSO (zVAD vehicle) (F) Same as E, but viability was measured by crystal violet staining and quantified in (G). (H) Schematic describing the role of ATAD1 in proteasome inhibitor toxicity (I) Tumor size of subcutaneous xenografts of SW1088 cells in NOD/SCID mice over time (J) Incidence of palpable tumors, or tumor-free survival, over time (K) Proliferation of cultured SW1088 cells as measured with crystal violet staining, n=2 independent experiments. † represents P<0.0001
(§2) FIGS. 8A-8I show restoring ATAD1 expression in Del(10q23) cells increases resistance to proteasome inhibitors. (A) RPMI7951 cells were treated for 16 hr with bortezomib or carfilzomib and viability was measured by Cell Titer Glo. (B) Time-course of RPMI7951 cells treated with bortezomib (3.125 nM) n=3 biological replicates (C) SW1088 cells were cultured in 5 nM bortezomib for 48 hr and RPMI7951 cells were cultured for 24 hr and viability was assessed by crystal violet staining (D) H4 cells were treated with bortezomib for 24 hr and assessed by Cell Titer Glo (E) ATAD1 addback rescues mitochondrial morphology phenotype in response to bortezomib in SW1088 cells. Cells were treated with BTZ (10 nM) for 12 hr and stained with MitoTracker Red, then imaged on a widefield fluorescence microscope (F) Expression of ATAD1 in DepMap cell lines, highlighting PC3 cells (ATAD1 hemizygous), and two Del10q23 cell lines (G) Generation of ATAD1-deficient, polyclonal PC3 cells using stable expression of sgATAD1 (in LCv2G), with untargeted Cas9 only as a control (LCv2G) (H) Deletion of ATAD1 increases sensitivity to bortezomib in PC3 cells. […]
(§3) Viability was determined by Cell Titer Glo (Promega) according to the manufacturer's recommendation, with some modifications. […] Luminescence was measured using a Biotek Synergy Neo2 microplate reader. Luminescence values were normalized on each plate to untreated cells on the same plate, and expressed as percent.
Cells cultured in 12 or 6 well plates were washed twice with PBS then fixed with 4% paraformaldehyde (Sigma Aldrich) for 30 minutes at room temperature. […] Absorbance was measured at 590 nm using a Biotek Synergy Neo2 microplate reader, and values were normalized to those from untreated cells of the same genotype on each plate.

PC3 cells = test: Viability of PC3 cells with ATAD1 deletion or overexpression treated with bortezomib; format: cell-based
Method: as §2
Viability was determined by Cell Titer Glo (Promega) according to the manufacturer's recommendation, with some modifications. […] Luminescence was measured using a Biotek Synergy Neo2 microplate reader. […]

[2] = test system: Del10q23 cells (RPMI7951); test: Apoptosis by Western blot of whole cell lysate after bortezomib; format: cell-based; details: RPMI7951, 10 nM, 8 hr
Method: as §1
Whole cell lysates were prepared by scraping cells directly into RIPA buffer supplemented with protease and phosphatase inhibitors (Sigma Aldrich P8340, Roche Molecular 04906845001), incubated on ice for 30 minutes with vortexing every 10 min, and then spun at 16,000 g for 10 minutes at 4° C. to remove insoluble material. Supernatant was saved as lysate. […]

RPMI7951 cells = test: Viability of ATAD1-null vs. re-expressing RPMI7951 cells with BTZ and pan-caspase inhibitor; format: cell-based; details: 16 hr BTZ, zVAD-FMK 20 μM
Method: as §1
as §3, with “percent. […]” for “percent.”

[3] = Del10q23 cells (ATAD1-null, EV)
[4] = Del10q23 cells with expression of ATAD1

Structure (SMILES): CO[C@H]1/C=C/C[C@H](C)[C@@H](C)S(=O)(=O)NC(=O)c2ccc3c(c2)N(C[C@@H]2CC[C@H]21)C[C@@]1(CCCc2cc(Cl)ccc21)CO3 [AMG176]
- apoptotic priming (sensitivity to BH3-mimetic, viability) (Jurkat cells): primed cells for apoptosis induced by AMG176

Structure (SMILES): CC(=O)NC(C)(C)C(=O)N1CCC[C@H]1C(=O)NC(C)(C)C(=O)N[C@@H](C)C(=O)NC(C)(C)C(=O)N[C@@H](C)C(=O)N[C@@H](CCC(N)=O)C(=O)NC(C)(C)C(=O)N[C@H](C(=O)NC(C)(C)C(=O)NCC(=O)N[C@@H](CC(C)C)C(=O)NC(C)(C)C(=O)N1CCC[C@H]1C(=O)N[C@H](C(=O)NC(C)(C)C(=O)NC(C)(C)C(=O)N[C@@H](CCC(=O)O)C(=O)N[C@@H](CCC(N)=O)C(=O)N[C@H](CO)Cc1ccccc1)C(C)C)C(C)C [Alamethicin] (HELM PEPTIDE1{[ac].[Aib].P.[Aib].A.[Aib].A.Q.[Aib].V.[Aib].G.L.[Aib].P.V.[Aib].[Aib].E.Q.[OC[C@H](Cc1ccccc1)N[*:1]]}$$$$V2.0)
- cytochrome C release (H4 glioma cells): induced cytochrome C release equally regardless of ATAD1 status

Structure (SMILES): CC(C)C[C@H](NC(=O)[C@H](Cc1ccccc1)NC(=O)c1cnccn1)B(O)O [bortezomib]
- loss of viability [1, 3]: potently and rapidly induced a loss of viability
- loss of viability [1, 4]: mitigated by expression of ATAD1
- sensitivity (viability) (PC3 cells; deletion of the remaining allele of ATAD1): sensitized to bortezomib
- resistance (viability) (PC3 cells; overexpression of ATAD1 (not ATAD1E193Q)): increased resistance to bortezomib
- apoptosis ([2]; ATAD1 re-expressing cells): only minimally
- apoptosis ([2]; Del10q23-EV cells): robust apoptosis

Structure (SMILES): CC(C)C[C@H](NC(=O)[C@H](CCc1ccccc1)NC(=O)CN1CCOCC1)C(=O)N[C@@H](Cc1ccccc1)C(=O)N[C@@H](CC(C)C)C(=O)[C@@]1(C)CO1 [carfilzomib]
- loss of viability [1, 3]: potently and rapidly induced a loss of viability
- loss of viability [1, 4]: mitigated by expression of ATAD1

Structure (SMILES): COC(=O)C[C@H](NC(=O)[C@H](C)NC(=O)[C@@H](NC(=O)OCc1ccccc1)C(C)C)C(=O)CF [zVAD] (Cbz-Val-Ala-Asp(OMe)-CH2F)
- effect on viability under bortezomib (RPMI7951 cells): minimal additive effect
